Data set [1] has as its system human skin. Briefly: In vivo tissue hydration of the stratum corneum, Dermal Phase Meter 9003. The conditions noted are these: one application neat (100%) to forearm, FIG. 3. From the text:
(§1) TEWL and tissue hydration (of the stratum comeum) experiments were designed to evaluate the moisture retention properties of the Meadowestolide described in Example 1 in comparison with a relevant oil and a non-polymerized ester. Thus, for these studies, the natural oil to select as a control was Meadowfoam seed oil since it was the precursor oil from which the Meadowestolide was derived. […] Thus, in these experiments, the following substances were compared: (a) Meadowfoam seed oil (triglyceride oil); (b) a long-chain guerbet ester of meadowfoam fatty acid (CH3(CH2)9CH((CH)2O(CO)(CH2)22CH3)((CH2)7CH3); and (c) the Meadowestolide prepared in Example 1.
(§2) These experiments were conducted to assess and compare the moisturizing efficacy of the Meadowestolide and appropriate controls on human skin using a NOVA Technology Corporation (Portsmouth, N.H.) Dermal Phase Meter 9003 (DPM) and a ServoMed Evaporimeter (ServoMed, Sweden). The combined use of these instruments assesses the moisturizing and barrier enhancement properties of topically applied materials. […]
In the tissue hydration experiments, a Dermal Phase Meter 9003 was used to quantify moisture content in the stratum comeum (SC) by an electrical capacitance method. […] The Dermal Phase Meter 9003 numbers are directly related to the electrical capacitance of the skin measured as picoFarads (pF).

Data set [2] has as its system human skin. The data set is described as follows: In vivo transepidermal water loss (TEWL), ServoMed Evaporimeter. Conditions: one application neat (100%) to forearm, about 2 minutes; twenty subjects; FIG. 3.
Text: as §1, §2
A ServoMed Evaporimeter was used to measure transepidermal water loss (TEWL). A hand-held probe on this meter samples the relative humidity at two points above the skin surface, thereby allowing the rate of water loss to be calculated from the humidity gradient. Measurements are recorded as g/m2/hr. […]

Data set [3] in a line: In vitro water binding experiments (water retention by loss on drying). In kind it is physicochemical. The conditions noted are these: for water retention (FIG. 1 and FIG. 2), in words: 3 ml substance over 10 ml distilled water, after mixing. The method, then: It was postulated that, as a result of the structure of the Meadowestolide prepared in Example 1, which has a carboxylic acid function and an ester linkage in juxtaposition to one another, a considerable degree of hydrogen-bonding and consequent water binding should be evident. Consequently, in vitro experiments to test this theory employing the Meadowestolide, as well as the carefully selected comparative control compounds described below, were conducted.
The Meadowestolide prepared in Example 1 (3 ml) and the control substances (3 ml) were carefully layered over distilled water (10 ml) using a long-nosed pipette, hand mixed for 30 seconds and photographed using a Sony Digital DSC-F505V Camera equipped with a Carl Zeiss Vario-Sonner lens. The degree of water retention was then examined by measuring the “loss on drying” (water removed from lipid phase […]). The upper lipid phase was completely removed using a long-nose pipette and analyzed for water content by “loss on drying” using a drying oven at 105 degrees centigrade until there was no longer any change in weight.

Data set [4] is described as follows: Analytical results on purified Meadowestolide (stability). In kind it is physicochemical. From the text: The purified Meadowestolide was identified and subsequently quantified by infrared spectroscopy and HPLC coupled with an evaporative light-scattering detector.

We go through two molecules from patent US20070092475A1, “Methods for enhancing the morphology, tone, texture and/or appearance of skin using a Meadowestolide” (priority 2005, published 2007).

Structures are written as SMILES.

For the molecule `CCCCCCCCCCCCCC/C=C/CCCC(=O)OC(CCCCCCCCCCCCCCC)CCCC(=O)O` (centres unmarked) [Meadowestolide], the “tissue hydration, in comparison with Meadowfoam seed oil, in words” value with human skin [1] (about 2 minutes, twenty subjects) is “improved hydration”. Further, the “hydration capability, in comparison with the guerbet ester of meadowfoam fatty acid, in words” value in the data set with human skin [1] (molecular sizes reasonably equivalent) is “hydration capability exceeds that of a simple ester”. Also, in the data set with human skin [2], the “transepidermal water loss (TEWL), in words” value was “very efficient in preventing water loss”. In data set [3] (3 ml substance layered over 10 ml distilled water, hand mixed 30 seconds, loss on drying of lipid phase at 105 degrees centigrade, vs Jojoba oil), the “water bound, relative to Jojoba oil” value is “approximately nine”. Moreover, the “water bound, relative to Meadowfoam seed oil and meadowfoam fatty acid” value in data set [3] (3 ml substance layered over 10 ml distilled water, hand mixed 30 seconds, loss on drying of lipid phase at 105 degrees centigrade, vs Meadowfoam seed oil and meadowfoam fatty acid) is listed as “approximately four”. Further, the “water retention (FIG. 1 and FIG. 2), in words” value in data set [3] is reported as “capable of binding water to a significant extent”. The stability entry in data set [4] was “extended stability”.

With `CCCCCCCCCCCCCCCCC=CCCCC(=O)O` [meadowfoam fatty acid, CH3—(CH2)15—(CH)2—(CH2)3—COOH, reference compound], in data set [3], the “water retention (FIG. 1 and FIG. 2), in words” value was “retained a small quantity of water”.
